Experimental data taken from patent publication US9480675B2, “Method for increasing muscle growth by blocking sirtuin activity” (THE REGENTS OF THE UNIVERSITY OF CALIFORNIA, priority 2013, dated 2016).

System: wild type mice
Experiment: 14 days of overload (synergist ablation of GTN and SOL) with daily injection of SIRT1 inhibitor; plantaris muscle hypertrophy
Format: in vivo
Description: The plantaris (PLN) muscle in test subjects was overloaded by removal of the gastrocnemius (GTN) and soleus (SOL) muscles, termed synergist ablation. Briefly, test animals were anaesthetized and the area above the incision shaved and sterilized. The SOL and GTN were isolated and severed at the Achilles tendon. The complete SOL and the distal two thirds of the GTN were removed leaving the PLN muscle and their blood and nerve supply intact. The overlying skin was sutured with 6-0 vicryl and the animal was then given the analgesic and moved to a temperature-controlled environment to recover. […] Animals were monitored on a daily basis for signs of pain or post-operative infection. […] On the day of collection, animals were anaesthetized and overloaded and contralateral control muscles were rapidly removed, rinsed in PBS, all connective/scar tissue was removed using a dissection microscope, then the muscles were snap frozen in liquid nitrogen, and stored at −80° C. until processed.
To determine whether the effect of SIRT1 on overload-induced muscle hypertrophy required genetic ablation or whether pharmacological ablation of SIRT1 activity could mimic the effect of the knockout, GTN and SOL muscles of wild type mice were removed and half of the mice received daily injections of the SIRT1 inhibitor Splitomycin. There were 14 days of overload performed in wild type mice concurrent with daily injection of either saline (CON) or Splitomycin (Split).

## O=C1CCc2c(ccc3ccccc23)O1 [Splitomycin]
25 mg/kg body weight per day
  effectiveness of therapeutic dose (in words): effective
14 days of daily injection
  effect on basal muscle mass: without affecting basal muscle mass
Wild type mice, 14 days of overload, daily injection, saline (CON) vs Splitomycin (Split), FIG. 6
  effect on muscle hypertrophy (in words): increases muscle hypertrophy
Wild type mice, 14 days of overload, daily injection, versus saline/vehicle (FIG. 6)
  more muscle hypertrophy than vehicle (saline) injection: 65%
